Peptide text beside a SMILES is read from it.

The source of these data is publication PMC5844868, “Increased intracellular activity of MP1102 and NZ2114 against Staphylococcus aureus in vitro and in vivo” (Scientific Reports, 2018).

Test [1] deals with virulent staphylococcal strains. To be noted: relative efficacy; cited from earlier work. From the text: This study is the first evaluation of the intracellular anti-staphylococcal properties of the NZ2114 derivative MP1102 using both in vitro and in vivo methods. […] As a corresponding in vivo mouse model, RAW 264.7 macrophages were chosen to evaluate in vitro intracellular activity in this study.

The next test concerns IL-10. Kind of test: Cytokine ELISA in S. aureus-infected RAW 264.7 cells. It is filed as cell-based, mouse. To be noted: 25 μg/ml, 24 h after treatment. On the procedure: (§1) To investigate the effects of MP1102 and NZ2114 on cytokine levels in cells infected with S. aureus, RAW264.7 cells (2.5 × 10^5 cells/ml) seeded into 12-well plates were incubated with MRSA ATCC43300 (MOI = 100:1) for 30 min followed by treatment with 50 μg/ml lysostaphin for 1 h to remove non-phagocytosed bacteria. The cells were then treated with 25 μg/ml MP1102, NZ2114 and vancomycin for 12 h and 24 h. Cell-free culture supernatants were collected and the concentrations of cytokines (TNF-α, IL-1β and IL-10) were determined by Jiaxuan Biotech. Co. Ltd. (Beijing, China) using an ELISA kit[58],[59].
A general note: In an ELISA, binding on a coated surface is turned into a signal by an enzyme label.

In another test the test system is IL-1β. The test is described as above. Type of test: cell-based, mouse. The note with it: 25 μg/ml, 24 h after infection with MRSA ATCC43300; range over treatments. On the procedure: as §1
The next test relates to MSSA ATCC25923. Nature of the test: Mouse peritonitis model. It is filed as in vivo. The note with it: 20 mg/kg and 10 mg/kg dose, data not shown. On the procedure: The mice were infected by peritoneal injection with different S. aureus strains, including MSSA ATCC25923 (5 × 10^8 CFU), MRSA ATCC43300 (5 × 10^8 CFU) and high virulent CVCC546 (5 × 10^7 CFU), and treated with a single dose of drugs ([…], 20, 30 and 40 mg/kg for ATCC43300 and CVCC546) at 10 min after infection. Twenty-four hours after treatment, the mice were killed and peritoneal fluids were obtained by washing with 5 ml ice-cold PBS. The total number of bacteria in the fluids was determined before any further procedures and then divided into two equal fractions of 1.5 ml each for the following purposes: i) for extracellular bacteria quantification, one fraction was centrifuged for 10 min at 4 °C (300 g) and the supernatant CFU count was quantified and ii) for intracellular bacteria quantification, the other fraction was centrifuged for 5 min at 4 °C (1,000 rpm). The cells were collected and treated with 100 μg/ml gentamicin (MSSA ATCC25923) or 50 μg/ml lysostaphin (MRSA ATCC43300 and high virulent CVCC546) for 1 h at 37 °C to kill extracellular bacteria. The cells were washed twice with ice-cold PBS to remove any anti-extracellular bacterial drug. Subsequently, the cells were lysed and counted as described above for the in vitro experiment method[14],[54].

Take `CC[C@H]1OC(=O)[C@H](C)[C@@H](O[C@H]2C[C@@](C)(OC)[C@@H](O)[C@H](C)O2)[C@H](C)[C@@H](O[C@@H]2O[C@H](C)C[C@H](N(C)C)[C@H]2O)[C@](C)(O)C[C@@H](C)CN(C)[C@H](C)[C@@H](O)[C@]1(C)O` [azithromycin]: in test [1], the Emax is −0.5 log CFU.
`Cc1onc(-c2ccccc2)c1C(=O)N[C@@H]1C(=O)N2[C@@H]1SC(C)(C)[C@@H]2C(=O)O` [oxacillin]: the Emax in test [1] is given as −0.68 log CFU.
Regarding `CC[C@H](C)[C@@H]1NC(=O)[C@H](CO)NC(=O)[C@H](CCCCN)NC(=O)[C@@H]2CSSC[C@@H](C(=O)N[C@@H](Cc3ccc(O)cc3)C(=O)O)NC(=O)[C@H](CCCCN)NC(=O)[C@@H]3CSSC[C@H](NC(=O)[C@H](CCCCN)NC(=O)[C@H](C(C)C)NC(=O)[C@H](CC(=O)O)NC(=O)[C@H](CC(=O)O)NC(=O)[C@H](CCC(=O)O)NC(=O)[C@H](CCC(=O)O)NC(=O)[C@H](Cc4c[nH]c5ccccc45)NC(=O)[C@@H]4CCCN4C(=O)CNC(=O)[C@H](CC(N)=O)NC(=O)[C@@H](NC(=O)CNC(=O)[C@H](Cc4ccccc4)NC(=O)CN)CSSC[C@H](NC(=O)[C@H](Cc4ccc(O)cc4)NC(=O)CNC(=O)CNC(=O)[C@H](CCCCN)NC(=O)[C@H](Cc4ccc(O)cc4)NC(=O)CNC(=O)[C@H](CCCCN)NC1=O)C(=O)N[C@@H](C)C(=O)N[C@@H](CCCCN)C(=O)NCC(=O)NCC(=O)N[C@@H](Cc1ccccc1)C(=O)N[C@@H](C(C)C)C(=O)N3)C(=O)N[C@@H](Cc1c[nH]cn1)C(=O)N[C@@H](CC(N)=O)C(=O)N[C@@H](Cc1c[nH]cn1)C(=O)N2` [MP1102] (HELM PEPTIDE1{G.F.G.C.N.G.P.W.E.E.D.D.V.K.C.H.N.H.C.K.S.I.K.G.Y.K.G.G.Y.C.A.K.G.G.F.V.C.K.C.Y}$PEPTIDE1,PEPTIDE1,4:R3-30:R3|PEPTIDE1,PEPTIDE1,15:R3-37:R3|PEPTIDE1,PEPTIDE1,19:R3-39:R3$$$V2.0; N-terminus and C-terminus assumed; bridges inferred), in the test on IL-10, the “IL-10 level change, in contrast to the decrease with NZ2114 and vancomycin” value came to 4.8 pg/mL. In addition, in the test with IL-1β, the “suppressed production of IL-1β” value was 18.7 to 49.5 pg/mL. Moreover, in the test on MSSA ATCC25923, the “colonies on the plates” value is on record as “no colonies were observed”.
Turning to `C[C@@H](O)[C@H]1C(=O)N2C(C(=O)O)=C(SCCN=CN)C[C@H]12` [imipenem], the Emax in test [1] is listed as −0.9 log CFU.
